# Data taken from patent US10806790B1, “Pain therapy cream with deep tissue delivery system” (priority 2013, dated 2020).
# How the values were obtained:
# [1] = system: symptoms of primary osteoarthritis (OA) of the knee; assay: 12-week randomized, double-blind, double-dummy, parallel-group comparative study; WOMAC osteoarthritis index (VAS) efficacy; type: in vivo, patients (men and nonpregnant women)
# Description: (§1) The purpose of this study was to compare the safety and efficacy of a topical cream (CellMedics®) containing 0.075% w/w capsaicin and 5% w/w Harpagophytum extract vs. oral diclofenac 50 mg tablets over a 12-week treatment course in relieving the symptoms of primary osteoarthritis (OA) of the knee, in a randomized, double-blind, double-dummy, parallel-group study. Eligible patients included men and nonpregnant women between the ages of 45-75 with symptomatic OA of the knee of at least three months duration. All patients had knee OA as defined by the American College of Rheumatology global functional class I, II, or III. […] Concomitant use of other analgesic medications was prohibited during the study. The protocol was a 12-week, randomized, double-blind, double-dummy, parallel-group comparative study. Patients were assessed at the initial screening visit and those who met the entry criteria discontinued NSAID treatment for a washout period of 3-10 days before the baseline visit. Following the screening and washout periods, each eligible patient attending the baseline visit was assigned a numbered study kit at the clinic. Study kits contained one of 2 randomly assigned treatments: (1) vehicle cream (CellMedics®) containing 0.075% w/w capsaicin and 5% w/w Harpagophytum extract (topical Harpagophytum) plus oral placebo tablet; or (2) diclofenac 50 mg tablet (oral diclofenac) plus a topical placebo cream (vehicle cream with no actives). Patients were instructed to apply a single 3 g measured dose of cream (150 mg of Harpagophytum and 2.25 mg of capsaicin in the active cream) from a metered pump dispenser around the affected knee and take a study tablet orally, 3 times daily for 12 weeks. […] The WOMAC osteoarthritis index, version 3.1 visual analog scale (VAS) was used to assess response to treatment at baseline and after week 12. Patients answered the WOMAC subscales of pain, stiffness, and physical function using a 48 hour recall period. For WOMAC, the VA scales were (best) 0-100 (worst). Safety analyses were conducted on all patients randomized into the trial. At week 12 visits, adverse events (AE) were recorded. The differences between baseline and week 12 were used to analyze changes in WOMAC scores. Statistical significance was assumed at p<0.05. The effect size was calculated by dividing the mean change from baseline with the standard deviation at baseline. Percent improvement was calculated by dividing week 12 change scores by baseline scores.
# [2] = system: patients with primary osteoarthritis (OA) of the knee; assay: Same 12-week study; safety analysis, incidence of drug-related adverse events
# Description: as §1
# [3] = mean change from baseline divided by the standard deviation at baseline, week 12
# [4] = mean, WOMAC VA scale (best) 0-100 (worst), 12 weeks, 3 times daily, n = 36
# [5] = week 12 change score divided by baseline score
# [6] = both, human, in vivo, po, 12 weeks
smiles,measurement,setting,value
"O=C(O)Cc1ccccc1Nc1c(Cl)cccc1Cl [Oral Diclofenac, diclofenac]","WOMAC Pain, Effect size",[1]; [3],1.04
same,"WOMAC Physical Function, Effect size",[1]; [3],0.99
same,"WOMAC Stiffness, Effect size",[1]; [3],0.90
same,"WOMAC Pain, Baseline - week 12 change score",[1]; [4],−22.87
same,"WOMAC Physical Function, Baseline - week 12 change score",[1]; [4],−21.87
same,"WOMAC Stiffness, Baseline - week 12 change score",[1]; [4],−21.65
same,"WOMAC Pain, % Improvement",[1]; [5],48.77%
same,"WOMAC Physical function, % Improvement",[1]; [5],45.91%
same,"WOMAC Stiffness, % Improvement",[1]; [5],44.86%
same,"Erythema (application site adverse event), number of patients","[2]; 12 weeks, n = 36, oral diclofenac group used placebo cream",One
same,severity of dry skin at application site,[2]; all cases,mild and transient
same,"Abdominal pain (GI adverse event), number of patients","[2]; both, human, in vivo, 12 weeks",8
same,"Constipation (GI adverse event), incidence","[2]; both, human, in vivo, 12 weeks",(8.3%)
same,"Constipation (GI adverse event), number of patients","[2]; both, human, in vivo, 12 weeks",3
same,"Diarrhea (GI adverse event), incidence","[2]; both, human, in vivo, 12 weeks",(16.7%)
same,"Diarrhea (GI adverse event), number of patients","[2]; both, human, in vivo, 12 weeks",6
same,"Dyspepsia (GI adverse event), incidence","[2]; both, human, in vivo, 12 weeks",(25.0%)
same,"Dyspepsia (GI adverse event), number of patients","[2]; both, human, in vivo, 12 weeks",9
same,"Edema (other adverse event), number of patients","[2]; both, human, in vivo, 12 weeks",3
same,"Flatulence (GI adverse event), incidence","[2]; both, human, in vivo, 12 weeks",(16.7%)
same,"Flatulence (GI adverse event), number of patients","[2]; both, human, in vivo, 12 weeks",6
same,"Headache (other adverse event), number of patients","[2]; both, human, in vivo, 12 weeks",2
same,"Nausea (GI adverse event), incidence","[2]; both, human, in vivo, 12 weeks",(11.1%)
same,"Nausea (GI adverse event), number of patients","[2]; both, human, in vivo, 12 weeks",4
same,time to resolution of mild redness (erythema),"[2]; both, human, in vivo, 12 weeks",≤ 24 h
same,"Blisters (application site adverse event), incidence",[2]; [6],(0.0%)
same,"Blisters (application site adverse event), number of patients",[2]; [6],0
same,"Dry Skin (application site adverse event), number of patients",[2]; [6],1
same,"Erythema (application site adverse event), number of patients",[2]; [6],1
same,"Pruritis (application site adverse event), incidence",[2]; [6],(0.0%)
same,"Pruritis (application site adverse event), number of patients",[2]; [6],0
